The source of these data is ChEMBL document CHEMBL1201862, “PubChem BioAssay data set” (2004).

What all share (assay): growth of human tumour cells (NCI), 48 h
Assay [1] concerns UACC-62.
For assay [2], the system named is MDA-MB-435.
Assay [3] relates to SNB-19.
Assay [4] relates to 786-0.
In assay [5] the test system is U-251.
Assay [6] deals with T47D.
Assay [7] has as its system SN12C.
In assay [8] the test system is EKVX.
Assay [9] deals with UO-31.
Assay [10] has as its system TK-10.
Assay [11] has as its system Hs-578T.
The test system of assay [12] is SK-MEL-2.
Assay [13] deals with BT-549.
Assay [14] deals with MOLT-4.
The subject of assay [15] is SW-620.
Assay [16] deals with ACHN.
In assay [17] the test system is NCI-H226.
The test system of assay [18] is MDA-N.
The test system of assay [19] is HCC 2998.
Assay [20] deals with SF-539.

SMILES strings stand for the structures.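 A five-concentration, 48-hour dose response in 96-well plates underlies each endpoint, interpolated linearly between surrounding concentrations. Abbreviation: GI50, concentration required for 50% inhibition of growth.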 Activity calls are given as the source filed them. Rule as the data show it: active = GI50 up to about 1.1 µM and inactive = higher. Square brackets hold non-standard residues; d marks the D form. Peptide text beside a SMILES is read from it. * marks the point of attachment. NMeV = CN[C@H](C(=O)O)C(C)C; X28 = COc1ccc(CN*)c(OC)c1; Octanoyl = CCCCCCCC(=O)*; dNMeA = CN[C@H](C)C(=O)O

As to `O=C(O)C12CCC(CC1=O)C2` (stereo not given), the GI50 in assay [1], in assay [2], in assay [3], in [4], in assay [5] and in assay [6] was > 100 µM (inactive) each time. In addition, the GI50 in [7], in assay [8], in [9], in [10], in assay [11] and in assay [12] was > 100 µM (inactive) each time. For the same compound, the GI50 in [13], in assay [14], in assay [15], in assay [16] and in assay [17] was > 100 µM (inactive) each time.
In the case of `O=C1c2ccsc2C(=O)c2sc(CO)cc21`, the GI50 is 0.0553 µM (active) in [1]; < 0.0132 µM (active) in assay [2]; < 0.0133 µM (active) in [18]; 0.0929 µM (active) in assay [3]; 0.385 µM (active) in assay [4]; 0.156 µM (active) in assay [5]. Further, the GI50 in assay [19] was 3.52 µM (inactive); in assay [7], 0.0386 µM (active); in assay [8], 1.65 µM (inactive); in assay [9], 0.134 µM (active); in assay [10] it was 5.93 µM (inactive); in assay [11] it was 0.0611 µM (active). The GI50 in assay [12] is 0.0929 µM (active); in [13], 0.0182 µM (active); in [14], 0.524 µM (active); in assay [15] it was 0.0564 µM (active); in [20], 0.0469 µM (active); in assay [16], 0.0681 µM (active). The GI50 in assay [17] is 0.243 µM (active).
Regarding `OCCCSc1ccccc1SCCCO`, the GI50 in assay [1], in assay [2], in assay [18], in [3], in [4] and in assay [5] was > 100 µM (inactive) throughout. The GI50 in [6], in [19], in [7], in assay [8], in [9] and in assay [10] was > 100 µM (inactive) throughout. The GI50 in assay [13], in [14], in [15] and in assay [20] was > 100 µM (inactive) throughout.
With `CC(C)(C)/C(O)=C\c1nc2cc(F)c(F)cc2[nH]c1=O`, the GI50 in assay [1], in assay [2], in [3], in assay [4], in assay [5] and in [6] was > 100 µM (inactive) each time. Moreover, the GI50 in assay [19], in assay [8], in assay [9], in [10], in assay [11] and in assay [12] was > 100 µM (inactive) each time. For the same compound, the GI50 in assay [13] was > 100 µM (inactive); in [14], 48.4 µM (inactive); in assay [15] it was > 100 µM (inactive); in assay [20] it was > 100 µM (inactive); in assay [16], > 100 µM (inactive); in assay [17], > 100 µM (inactive).
As to `O=C(O)c1ccc(C2SCc3nc4ccccc4n32)cc1` (stereo not given), the GI50 in assay [18] was > 100 µM (inactive); in assay [3], > 100 µM (inactive); in assay [4], > 100 µM (inactive); in assay [5] it was > 100 µM (inactive); in assay [6], > 10 µM (inactive); in assay [19], > 100 µM (inactive). Moreover, the GI50 in assay [7], in assay [8], in assay [9], in assay [10], in assay [11] and in assay [12] was > 100 µM (inactive) in each case. Also, the GI50 in assay [13], in assay [14], in [15], in [20], in [16] and in [17] was > 100 µM (inactive) throughout.
Consider `O=C1C(CO)=C[C@@H](O)[C@H]2O[C@@H]12` [EPOXYDON], for which the GI50 is > 100 µM (inactive) in assay [1]; 25.2 µM (inactive) in [2]; > 100 µM (inactive) in [18]; 39.8 µM (inactive) in assay [4]; 61.5 µM (inactive) in assay [5]; > 100 µM (inactive) in assay [6]. The GI50 is 18.4 µM (inactive) in [7]; > 100 µM (inactive) in assay [8]; > 100 µM (inactive) in assay [9]; > 100 µM (inactive) in assay [11]; > 100 µM (inactive) in assay [12]; 98.9 µM (inactive) in assay [13]. For the same compound, the GI50 in assay [14] was > 100 µM (inactive); in assay [15], 37.9 µM (inactive); in [16], 90.2 µM (inactive); in assay [17], > 100 µM (inactive).
Turning to `O=C(c1cc(Cl)ccc1Cl)N1CCN(c2ccc(Cl)c(Cl)c2)CC1`, the GI50 in assay [18] is 38.1 µM (inactive); in assay [3] it was > 10 µM (inactive); in [4], 19.7 µM (inactive); in [5], 27.2 µM (inactive); in assay [6], 2.45 µM (inactive); in assay [19] it was 26.7 µM (inactive). Moreover, the GI50 in assay [7] was 33.3 µM (inactive); in assay [8], 37.2 µM (inactive); in [9], 14.8 µM (inactive); in [10], 31.9 µM (inactive); in [11] it was 45.9 µM (inactive); in [13], 25.2 µM (inactive). For the same compound, the GI50 in assay [14] is 20.6 µM (inactive); in [15], 49.1 µM (inactive); in assay [20] it was 19.2 µM (inactive); in [16], 47 µM (inactive); in assay [17], 13.6 µM (inactive).
`CCCCCCCC(=O)N[C@H](C(=O)N[C@H](C(=O)N(C)[C@H](C(=O)N1CCC[C@H]1C(=O)N(C)[C@H](C)C(=O)NCc1ccc(OC)cc1OC)C(C)C)C(C)C)C(C)C` (Octanoyl-VV[NMeV]P[dNMeA]-X28): the GI50 in assay [1] is 7.21 µM (inactive); in assay [2], 5.22 µM (inactive); in [3], 12.7 µM (inactive); in assay [4] it was 23.2 µM (inactive); in assay [5], 4.79 µM (inactive); in [6], 4.29 µM (inactive). In addition, the GI50 in assay [19] is 13.4 µM (inactive); in assay [7], 18 µM (inactive); in assay [8], 6.89 µM (inactive); in [9] it was 17.6 µM (inactive); in assay [10], 22.3 µM (inactive); in [11], 9.16 µM (inactive). Besides, the GI50 is 12.9 µM (inactive) in [12]; 11.8 µM (inactive) in [13]; 14.2 µM (inactive) in assay [14]; 7.71 µM (inactive) in assay [15]; 18.8 µM (inactive) in [20]; 5.26 µM (inactive) in [16]. The GI50 in [17] is 4.95 µM (inactive).
As to `O=C(CCCN1CCC(Nc2ccccc2)(c2nnnn2C2CCCCC2)CC1)c1ccc(F)cc1`, the GI50 in [1] was 11.7 µM (inactive); in [2], 6.62 µM (inactive); in assay [18] it was 5.28 µM (inactive); in assay [3] it was 9.64 µM (inactive); in assay [4] it was 3.89 µM (inactive); in assay [5] it was 5.86 µM (inactive). Besides, the GI50 in assay [19] is 3.29 µM (inactive); in assay [7], 10.6 µM (inactive); in assay [8] it was 3.3 µM (inactive); in [9], 3.78 µM (inactive); in [10], 12.9 µM (inactive); in [11] it was 10.3 µM (inactive). The GI50 in assay [12] is 4.21 µM (inactive); in assay [13] it was 7.96 µM (inactive); in assay [14], 14 µM (inactive); in assay [15], 6.76 µM (inactive); in assay [20], 2.25 µM (inactive); in assay [16], 4.58 µM (inactive). Further, the GI50 in assay [17] is 17.9 µM (inactive).
For the compound `CC1CC(N2CCOCC2)=Nc2ccccc2N1C` (stereo not given), the GI50 in assay [1], in [2], in assay [18], in assay [3], in assay [4] and in assay [5] was > 100 µM (inactive) each time. In addition, the GI50 in assay [7], in [8], in assay [9], in assay [10], in assay [11] and in [12] was > 100 µM (inactive) in each case. For the same compound, the GI50 in assay [13] was > 100 µM (inactive); in assay [14] it was 95.5 µM (inactive); in assay [15] it was > 100 µM (inactive); in [20], > 100 µM (inactive); in [16] it was > 100 µM (inactive); in assay [17], > 100 µM (inactive).
In the case of `CCOC(=O)c1c2c(n(-c3ccc(OC)cc3)c1C)C(=O)C(=O)c1ccccc1-2`, the GI50 in assay [1] was 1.6 µM (inactive); in [2] it was 0.19 µM (active); in assay [3] it was 1.36 µM (inactive); in assay [4] it was 1.87 µM (inactive); in [5], 1.22 µM (inactive); in assay [6], 1.01 µM (active). For the same compound, the GI50 is 1.73 µM (inactive) in assay [19]; 1.58 µM (inactive) in [7]; 2.01 µM (inactive) in assay [8]; 2.12 µM (inactive) in assay [9]; 1.72 µM (inactive) in assay [10]; 2.18 µM (inactive) in assay [11]. Also, the GI50 in [12] is 3.27 µM (inactive); in assay [13] it was 2.02 µM (inactive); in assay [15], 1.24 µM (inactive); in [20] it was 0.711 µM (active); in assay [16] it was 1.14 µM (inactive); in [17] it was 1.75 µM (inactive).
